Tests used:
Assay in all cases: Bliss excess, mean over the matrix (fraction); higher = more synergy
[1] = test system: 22RV1 (Prostate Carcinoma)
Method in brief: (§1)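 Cell lines grown in DMEM/F12 or RPMI with 10% FBS were plated in 1536-well plates and held 24 hours at 37°C, 5% CO2 before 72 hours of exposure to two-drug dose matrices, with DMSO typically at 0.2%. CellTiter-Glo 2.0 luminescence gave viability, which was converted to inhibition. Vehicle wells were set to 0 and blank wells to 1. Combination Emax is the second-highest inhibition in the matrix, and Bliss excess is the observed combination effect minus the expected EA + EB − EA·EB, where EA and EB are the single-agent effects.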

769-P (Kidney Carcinoma) = test system: 769-P (Kidney Carcinoma)
Method in brief: as §1

EB2 (Burkitt's Lymphoma) = test system: EB2 (Burkitt's Lymphoma)
Method in brief: as §1

[2] = test system: MDA-MB-436 (Breast Carcinoma)
Method in brief: as §1

[3] = test system: NCI-H1703 (Squamous Cell Lung Carcinoma)
Method in brief: as §1

[4] = test system: NCI-H441 (Lung Adenocarcinoma)
Method in brief: as §1

PEO1 (Ovarian Carcinoma) = test system: PEO1 (Ovarian Carcinoma)
Method in brief: as §1

[5] = test system: SW620 (Colorectal Carcinoma)
Method in brief: as §1

NB13 (Neuroblastoma) = test system: NB13 (Neuroblastoma)
Method in brief: as §1

O=C(c1cc(Cc2n[nH]c(=O)c3ccccc23)ccc1F)N1CCN(C(=O)C2CC2)CC1 [Olaparib] + Cc1c2c(nn1C)CSCc1cc(n(C)n1)CSc1cc(c3ccccc3c1)OCCCc1c(C(=O)O)n(C)c3c-2c(Cl)ccc13 [AZD5991] (first compound max 10 µM, 7x7, partner max 1 µM)
Bliss excess [1]: -0.0012 | Bliss excess (769-P (Kidney Carcinoma)): 0.0074 | Bliss excess (EB2 (Burkitt's Lymphoma)): -0.0266 | Bliss excess [2]: -0.0211 | Bliss excess [3]: -0.0244 | Bliss excess [4]: -0.054 | Bliss excess (PEO1 (Ovarian Carcinoma)): -0.069 | Bliss excess [5]: -0.0572

Cc1c2c(nn1C)CSCc1cc(n(C)n1)CSc1cc(c3ccccc3c1)OCCCc1c(C(=O)O)n(C)c3c-2c(Cl)ccc13 [AZD5991] + CS(=O)(=O)CCNCc1ccc(-c2ccc3ncnc(Nc4ccc(OCc5cccc(F)c5)c(Cl)c4)c3c2)o1 [Lapatinib] (first compound max 1 µM, 7x7, partner max 10 µM)
Bliss excess [1]: -0.0131 | Bliss excess (769-P (Kidney Carcinoma)): 0.0329 | Bliss excess (EB2 (Burkitt's Lymphoma)): -0.0287 | Bliss excess [2]: -0.0434 | Bliss excess (NB13 (Neuroblastoma)): -0.0239 | Bliss excess [3]: -0.0374 | Bliss excess [4]: -0.0054 | Bliss excess (PEO1 (Ovarian Carcinoma)): -0.0352 | Bliss excess [5]: -0.043

CN(CCO)CC[C@H](CSc1ccccc1)Nc1ccc(S(=O)(=O)NC(=O)c2ccc(N3CCC([C@@H](O)c4ccccc4-c4ccc(Cl)cc4)CC3)cc2)cc1S(=O)(=O)C(F)(F)F [AZD4320] + CS(=O)(=O)CCNCc1ccc(-c2ccc3ncnc(Nc4ccc(OCc5cccc(F)c5)c(Cl)c4)c3c2)o1 [Lapatinib] (first compound max 1 µM, 7x7, partner max 10 µM)
Bliss excess [1]: -0.0394 | Bliss excess (769-P (Kidney Carcinoma)): -0.0042 | Bliss excess (EB2 (Burkitt's Lymphoma)): -0.104 | Bliss excess [2]: -0.0333 | Bliss excess (NB13 (Neuroblastoma)): 0.0537 | Bliss excess [3]: 0.0162 | Bliss excess [4]: -0.0156 | Bliss excess (PEO1 (Ovarian Carcinoma)): 0.0311 | Bliss excess [5]: -0.0116

Cc1nc(-c2cn3c(n2)-c2ccc(-c4cnn(C(C)(C)C(N)=O)c4)cc2OCC3)n(C(C)C)n1 [Taselisib] + O=C(Nc1ccc2[nH]nc(-c3ccncc3)c2c1)[C@@H]1CCN(CC(=O)N2CCN(c3ccc(-c4ncccn4)cc3)CC2)C1 [SCH772984] (first compound max 10 µM, 7x7, partner max 5 µM)
Bliss excess [1]: 0.0502 | Bliss excess (769-P (Kidney Carcinoma)): 0.0852 | Bliss excess (EB2 (Burkitt's Lymphoma)): 0.0182 | Bliss excess [2]: -0.0028 | Bliss excess (NB13 (Neuroblastoma)): 0.0664 | Bliss excess [3]: -0.0292 | Bliss excess [4]: 0.0123 | Bliss excess (PEO1 (Ovarian Carcinoma)): 0.0874 | Bliss excess [5]: 0.0518

C=CCn1c(=O)c2cnc(Nc3ccc(N4CCN(C)CC4)cc3)nc2n1-c1cccc(C(C)(C)O)n1 [AZD1775] + CCc1c2c(nc3ccc(O)cc13)-c1cc3c(c(=O)n1C2)COC(=O)[C@]3(O)CC [SN-38] (first compound max 1 µM, partner max 0.3 µM)
Bliss excess [1]: -0.0464 | Bliss excess (769-P (Kidney Carcinoma)): -0.0084 | Bliss excess (EB2 (Burkitt's Lymphoma)): -0.0507 | Bliss excess [2]: -0.0545 | Bliss excess (NB13 (Neuroblastoma)): -0.0592 | Bliss excess [3]: -0.0341 | Bliss excess [4]: -0.0906 | Bliss excess (PEO1 (Ovarian Carcinoma)): -0.0267 | Bliss excess [5]: -0.0563

Cc1c2c(nn1C)CSCc1cc(n(C)n1)CSc1cc(c3ccccc3c1)OCCCc1c(C(=O)O)n(C)c3c-2c(Cl)ccc13 [AZD5991] + Nc1ccn([C@@H]2O[C@H](CO)[C@@H](O)C2(F)F)c(=O)n1 [Gemcitabine] (first compound max 1 µM, 7x7, partner max 0.3 µM)
Bliss excess [1]: -0.02 | Bliss excess (769-P (Kidney Carcinoma)): -0.0637 | Bliss excess (EB2 (Burkitt's Lymphoma)): -0.0405 | Bliss excess [2]: -0.06 | Bliss excess [3]: -0.0604 | Bliss excess [4]: 0.0106 | Bliss excess (PEO1 (Ovarian Carcinoma)): -0.0523 | Bliss excess [5]: -0.0217

C[C@@H](Oc1cc(-c2cnn(C3CCNCC3)c2)cnc1N)c1c(Cl)ccc(F)c1Cl [Crizotinib] + Cn1cnc2c(F)c(Nc3ccc(Br)cc3Cl)c(C(=O)NOCCO)cc21 [Selumetinib] (first compound max 10 µM, 7x7, partner max 10 µM)
Bliss excess [1]: 0.0331 | Bliss excess (769-P (Kidney Carcinoma)): -0.0213 | Bliss excess (EB2 (Burkitt's Lymphoma)): -0.0748 | Bliss excess [2]: -0.005 | Bliss excess (NB13 (Neuroblastoma)): -0.104 | Bliss excess [3]: -0.0569 | Bliss excess [4]: 0.0148 | Bliss excess (PEO1 (Ovarian Carcinoma)): -0.0013 | Bliss excess [5]: 0.0065

C[C@@H]1COCCN1c1cc(C2([S@](C)(=N)=O)CC2)nc(-c2ccnc3[nH]ccc23)n1 [AZD6738] + C1CC(C1)(C(=O)[O-])C(=O)[O-].N.N.[Pt+2] [Carboplatin] (first compound max 10 µM, 7x7, partner max 10 µM)
Bliss excess [1]: -0.0138 | Bliss excess (769-P (Kidney Carcinoma)): -0.0233 | Bliss excess (EB2 (Burkitt's Lymphoma)): -0.0316 | Bliss excess [2]: -0.0038 | Bliss excess (NB13 (Neuroblastoma)): -0.0955 | Bliss excess [3]: -0.0312 | Bliss excess [4]: -0.0436 | Bliss excess (PEO1 (Ovarian Carcinoma)): -0.0595 | Bliss excess [5]: -0.0461

C[C@@H](Nc1cc(F)cc(F)c1)c1cc(C(=O)N(C)C)cc2c(=O)cc(N3CCOCC3)oc12 [AZD8186] + C1CN(CCC1(C(=O)N[C@@H](CCO)C2=CC=C(C=C2)Cl)N)C3=NC=NC4=C3C=CN4 [AZD5363] (first compound max 10 µM, 7x7, partner max 10 µM)
Bliss excess [1]: -0.0401 | Bliss excess (769-P (Kidney Carcinoma)): -0.0459 | Bliss excess (EB2 (Burkitt's Lymphoma)): -0.0292 | Bliss excess [2]: -0.0162 | Bliss excess [3]: 0.0503 | Bliss excess [4]: -0.0392 | Bliss excess (PEO1 (Ovarian Carcinoma)): -0.0405 | Bliss excess [5]: -0.0135

O=C(c1cc(Cc2n[nH]c(=O)c3ccccc23)ccc1F)N1CCN(C(=O)C2CC2)CC1 [Olaparib] + CN(CC[C@H](CSC1=CC=CC=C1)NC2=C(C=C(C=C2)S(=O)(=O)NC(=O)C3=CC=C(C=C3)N4CCC(CC4)[C@H](C5=CC=CC=C5C6=CC=C(C=C6)Cl)O)S(=O)(=O)C(F)(F)F)CCO [AZD4320] (first compound max 10 µM, 7x7, partner max 1 µM)
Bliss excess [1]: -0.0864 | Bliss excess (769-P (Kidney Carcinoma)): -0.0143 | Bliss excess (EB2 (Burkitt's Lymphoma)): -0.0537 | Bliss excess [2]: -0.0288 | Bliss excess [3]: -0.0311 | Bliss excess [4]: -0.0587 | Bliss excess (PEO1 (Ovarian Carcinoma)): -0.083 | Bliss excess [5]: -0.0535

C[C@@H]1COCCN1c1cc(C2([S@](C)(=N)=O)CC2)nc(-c2ccnc3[nH]ccc23)n1 [AZD6738] + Nc1ccn([C@@H]2O[C@H](CO)[C@@H](O)C2(F)F)c(=O)n1 [Gemcitabine] (first compound max 10 µM, 7x7, partner max 0.3 µM)
Bliss excess [1]: -0.0011 | Bliss excess (769-P (Kidney Carcinoma)): -0.0475 | Bliss excess (EB2 (Burkitt's Lymphoma)): 0.0068 | Bliss excess [2]: 0.0544 | Bliss excess [3]: -0.006 | Bliss excess [4]: 0.0418 | Bliss excess (PEO1 (Ovarian Carcinoma)): 0.0764 | Bliss excess [5]: 0.0454

O=C(c1cc(Cc2n[nH]c(=O)c3ccccc23)ccc1F)N1CCN(C(=O)C2CC2)CC1 [Olaparib] + CC1(C)CCC(CN2CCN(c3ccc(C(=O)NS(=O)(=O)c4ccc(NCC5CCOCC5)c([N+](=O)[O-])c4)c(Oc4cnc5[nH]ccc5c4)c3)CC2)=C(c2ccc(Cl)cc2)C1 [Venetoclax] (first compound max 10 µM, 7x7, partner max 1 µM)
Bliss excess [1]: -0.0622 | Bliss excess (769-P (Kidney Carcinoma)): 0.0116 | Bliss excess (EB2 (Burkitt's Lymphoma)): -0.0324 | Bliss excess [2]: -0.0518 | Bliss excess [3]: -0.0065 | Bliss excess [4]: -0.0407 | Bliss excess (PEO1 (Ovarian Carcinoma)): -0.0786 | Bliss excess [5]: -0.0533

C[C@@H](Nc1cc(F)cc(F)c1)c1cc(C(=O)N(C)C)cc2c(=O)cc(N3CCOCC3)oc12 [AZD8186] + CC(=O)c1c(C)c2cnc(Nc3ccc(N4CCNCC4)cn3)nc2n(C2CCCC2)c1=O [Palbociclib] (first compound max 10 µM, 7x7, partner max 10 µM)
Bliss excess [1]: -0.0421 | Bliss excess (769-P (Kidney Carcinoma)): 0.0354 | Bliss excess (EB2 (Burkitt's Lymphoma)): 0.0045 | Bliss excess [2]: -0.0039 | Bliss excess [3]: 0.0093 | Bliss excess [4]: 0.0155 | Bliss excess (PEO1 (Ovarian Carcinoma)): -0.026 | Bliss excess [5]: 0.0238

Cc1c2c(nn1C)CSCc1cc(n(C)n1)CSc1cc(c3ccccc3c1)OCCCc1c(C(=O)O)n(C)c3c-2c(Cl)ccc13 [AZD5991] + CC(=O)O[C@H]1C(=O)[C@@]2(C)[C@H]([C@H](OC(=O)c3ccccc3)[C@]3(O)C[C@H](OC(=O)[C@H](O)[C@@H](NC(=O)c4ccccc4)c4ccccc4)C(C)=C1C3(C)C)[C@]1(OC(C)=O)CO[C@@H]1C[C@@H]2O [Paclitaxel] (first compound max 1 µM, 7x7, partner max 3 µM)
Bliss excess [1]: 0.0731 | Bliss excess (769-P (Kidney Carcinoma)): -0.0044 | Bliss excess (EB2 (Burkitt's Lymphoma)): -0.083 | Bliss excess [2]: 0.0273 | Bliss excess [3]: -0.0136 | Bliss excess [4]: -0.0193 | Bliss excess (PEO1 (Ovarian Carcinoma)): -0.0624 | Bliss excess [5]: 0.0435

O=C(c1cc(Cc2n[nH]c(=O)c3ccccc23)ccc1F)N1CCN(C(=O)C2CC2)CC1 [Olaparib] + COc1nnc2ccc(N3CCC(c4ccc(OCCN5CCN(C)C(=O)[C@H]5C)cc4)CC3)nn12 [AZD5153] (first compound max 10 µM, 7x7, partner max 1 µM)
Bliss excess [1]: -0.0312 | Bliss excess (769-P (Kidney Carcinoma)): -0.0374 | Bliss excess (EB2 (Burkitt's Lymphoma)): -0.0329 | Bliss excess [2]: -0.0247 | Bliss excess [3]: -0.0244 | Bliss excess [4]: -0.0779 | Bliss excess (PEO1 (Ovarian Carcinoma)): -0.0367 | Bliss excess [5]: -0.0506

C=CCn1c(=O)c2cnc(Nc3ccc(N4CCN(C)CC4)cc3)nc2n1-c1cccc(C(C)(C)O)n1 [AZD1775] + Nc1ccn([C@@H]2O[C@H](CO)[C@@H](O)C2(F)F)c(=O)n1 [Gemcitabine] (first compound max 1 µM, partner max 0.3 µM)
Bliss excess [1]: -0.0225 | Bliss excess (EB2 (Burkitt's Lymphoma)): 0.0066 | Bliss excess [2]: 0.0536 | Bliss excess [3]: 0.0364 | Bliss excess [4]: -0.0298 | Bliss excess (PEO1 (Ovarian Carcinoma)): 0.0712 | Bliss excess [5]: 0.0165

From the supplement of paper PMC11061612
